From patent US6710090B2, “Inhibitory or blocking agents of molecular generating and/or inducing functions” (priority 1994, dated 2004) come the findings set out here.

The target of one data set is T1, human fibrinogen (Homo sapiens, UniProt P02671+P02675+P02679).
T1 sequence (P02671 20-629 limits assumed): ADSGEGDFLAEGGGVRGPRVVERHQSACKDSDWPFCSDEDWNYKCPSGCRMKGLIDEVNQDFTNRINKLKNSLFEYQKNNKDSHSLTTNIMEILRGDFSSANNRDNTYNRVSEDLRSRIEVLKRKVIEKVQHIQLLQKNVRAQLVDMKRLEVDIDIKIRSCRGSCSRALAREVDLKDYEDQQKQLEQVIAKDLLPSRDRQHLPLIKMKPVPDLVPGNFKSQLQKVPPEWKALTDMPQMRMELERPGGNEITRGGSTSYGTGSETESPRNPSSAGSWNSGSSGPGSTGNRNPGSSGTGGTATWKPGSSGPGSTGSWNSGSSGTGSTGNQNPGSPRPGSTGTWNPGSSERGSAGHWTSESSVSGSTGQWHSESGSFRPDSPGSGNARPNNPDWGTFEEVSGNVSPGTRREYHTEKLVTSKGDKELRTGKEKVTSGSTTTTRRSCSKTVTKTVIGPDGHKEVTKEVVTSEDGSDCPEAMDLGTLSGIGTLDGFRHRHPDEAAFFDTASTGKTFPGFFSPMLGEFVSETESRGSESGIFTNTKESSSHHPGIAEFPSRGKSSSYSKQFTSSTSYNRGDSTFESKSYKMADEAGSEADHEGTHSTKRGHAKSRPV
T1 sequence (P02675 31-491): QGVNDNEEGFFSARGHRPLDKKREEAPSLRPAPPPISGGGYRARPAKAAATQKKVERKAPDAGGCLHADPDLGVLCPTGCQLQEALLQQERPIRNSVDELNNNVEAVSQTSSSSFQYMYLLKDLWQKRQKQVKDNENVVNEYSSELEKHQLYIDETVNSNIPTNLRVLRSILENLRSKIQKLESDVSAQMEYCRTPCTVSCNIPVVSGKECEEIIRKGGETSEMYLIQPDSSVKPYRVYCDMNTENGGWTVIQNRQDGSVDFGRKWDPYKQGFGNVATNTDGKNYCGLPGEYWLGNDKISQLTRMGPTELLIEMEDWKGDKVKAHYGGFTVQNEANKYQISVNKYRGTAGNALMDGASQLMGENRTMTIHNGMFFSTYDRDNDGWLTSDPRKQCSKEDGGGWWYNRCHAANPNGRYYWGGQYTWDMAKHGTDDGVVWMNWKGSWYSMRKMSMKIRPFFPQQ
T1 sequence (P02679 27-433 limits assumed): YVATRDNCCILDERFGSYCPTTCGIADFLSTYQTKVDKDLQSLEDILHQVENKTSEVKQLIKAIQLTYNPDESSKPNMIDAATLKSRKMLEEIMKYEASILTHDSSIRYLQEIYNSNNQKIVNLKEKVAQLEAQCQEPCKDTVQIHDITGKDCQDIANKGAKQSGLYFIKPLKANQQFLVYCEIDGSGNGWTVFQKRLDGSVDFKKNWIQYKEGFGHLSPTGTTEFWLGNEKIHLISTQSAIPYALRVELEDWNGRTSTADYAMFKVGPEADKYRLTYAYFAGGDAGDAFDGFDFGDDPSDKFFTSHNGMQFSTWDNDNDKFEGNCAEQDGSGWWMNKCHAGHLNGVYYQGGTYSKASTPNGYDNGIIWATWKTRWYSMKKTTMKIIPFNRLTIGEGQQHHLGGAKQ
Description: Composition of amino acids in fibrinogen. The class given is biochemical. The settings on record: Yoshixol 4 μl. The procedure:
(§1) Changes in composition of amino acids were analyzed by use of 1 ml of human blood serum, 1 ml of human fibrinogen (concentration of 160 mg/dl), 1 ml of human thrombin before and after treatment with Yoshixol (4 μl). The total amino acids in the human blood serum which was treated with Yoshixol decreased by 41%. And, ratio of each composition was altered after the treatment so that as an example the concentration of phosphoserine increased about 20 times which level was from 7.2 picomole to 164.8 picomole.

In the next data set the test system is human blood serum. Put plainly: Composition of amino acids in human blood serum. The class given is biochemical. The settings on record: Yoshixol 4 μl. The procedure: as §1
Data set [1] is described as follows: Softening and flexibility effect on skin. Further details: species or system rabbit and dog. The settings on record: histology, hematoxylin eosin staining. The procedure:
In order to investigate changes of softening and flexibility on skin from rabbit and dog, each skin was is dipped in 5 ml of physiological saline with 10 μl of the test solution. This test solution was prepared from 88 ml of physiological saline with 2 ml of polyoxyethylene (20) sorbitan monoolate 1 (Wakou Jyunyaku Co.) that is identical to Tween80 (ICI Co.) as the basal solution of control. As the treated solution, 10 ml of Yoshixol was added in the basal solution. […] Surgical stitching by the needle was easily to be inserted and transfixed in the skin. […] And, the sample treated with Yoshixol was observed as the preparation which was made from a fresher sample by hematoxylin eosin staining in contrast to the skin sample treated with the test solution of control. Moreover, a similar observation on histological pictures of each sample was obtained even when each skin sample was thawed at 20° C. after storaging each sample at 4° C. in the refrigeration for one month.

Data set [2] concerns anti-A blood serum, anti-B blood serum. Description: Function of serum antibodies for ABO blood types. The class given is biochemical, human. On the procedure: It is also known that antibody has a structure of Y shape which consists of 2 pairs of light chain and heavy chain in generally, and that the fundamental structure is maintained by S—S bond. Serum antibody reaction of ABO blood types is important historically to understand various kinds of antigen-antibody reactions. In this invention, effect of Yoshixol (4 μl) on the standard judgment of ABO blood types was investigated by using human blood of A type, B type and O type (400 μl, respectively).

Turning to `C=C1CC(C)(C)C=CC1=O` [Yoshixol, 4,4-dimethyl-6-methylene-2-cyclohexen-1-one], the “concentration of the total amino acids in fibrinogen” value at human fibrinogen (1 ml human fibrinogen 160 mg/dl) was “did not change”. Further, at human fibrinogen, the “increase of concentration of cystathione in fibrinogen” value was “more than 5 times”. In addition, the “glutamic acid and hydroxyl serine in fibrinogen” value at human fibrinogen (existed before treatment) is on record as “disappeared”. Further, in the data set with human blood serum (1 ml human blood serum), the “decrease of total amino acids in human blood serum” value was 41%. Also, in the data set on human blood serum (human blood serum), the “increase of concentration of phosphoserine” value is “about 20 times”. Further, the “concentration of phosphoserine after treatment” value in the data set with human blood serum (human blood serum, before 7.2 picomole) is given as 164.8 picomole. The “structure damages of each skin” value in data set [1] is reported as “did not found histologically”. The “primary structure of antiserums for ABO blood types (electrophoretic analysis)” value in data set [2] (after treatment of Yoshixol) is on record as “any change in primary structure of antiserums did not find”. The “blood aggregation in judgment of ABO blood type” value in data set [2] (antiserum treated with Yoshixol 4 μl, human blood A, B, O type 400 μl) is listed as “any aggregation did not occur”.
